Results published in patent US8389564B2, “Proteasome inhibitors” (priority 2008, dated 2013).
Where two headings read alike, the source gives them in different places.

What was measured:
[1] = target: T1, chymotrypsin-like activity of the 20S proteasome (Oryctolagus cuniculus, UniProt G1T4Q9); assay: In vitro purified rabbit muscle 20S proteasome assay, chymotrypsin-like (CT-L) activity, Suc-LLVY-AMC substrate; format: biochemical
T1 construct: In Vitro Purified Rabbit Muscle 20S Proteasome Activity Assays; from tissue; host or cells: rabbit muscle
T1 sequence (G1T4Q9 1-263): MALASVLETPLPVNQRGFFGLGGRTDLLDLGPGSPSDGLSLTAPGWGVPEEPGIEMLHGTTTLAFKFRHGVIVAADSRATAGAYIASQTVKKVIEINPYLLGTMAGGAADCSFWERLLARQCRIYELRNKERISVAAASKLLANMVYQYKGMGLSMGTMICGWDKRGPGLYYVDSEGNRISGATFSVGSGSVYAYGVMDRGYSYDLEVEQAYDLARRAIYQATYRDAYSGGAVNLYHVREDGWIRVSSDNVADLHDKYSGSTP
Description: (§1) Serial diluted test compounds were added in duplicate to 1 μg/ml purified rabbit 20S proteasome in assay buffer containing 20 mM HEPES, pH7.3, 0.5 mM EDTA, 0.05% Triton X-100 and 0.035% SDS and pre-incubated for 5 min at 37° C. Reactions were initiated by the addition of the Suc-LLVY-AMC peptide substrate at a final concentration of 20 μM. Fluorescence of the cleaved peptide substrate was measured at λex=390 nm and λem=460 nm using a Fluoroskan Ascent 96-well microplate reader (Thermo Electron, Waltham, Mass.). […] The caspase-like activity of the 20S proteasome was determined as described above except that Z-LLEAMC was used as the peptide substrate. For the evaluation of the trypsin-like activity, the SDS was omitted from the assay buffer and Boc-LRR-AMC was used as the peptide substrate.

[2] = target: T2, trypsin-like activity of the 20S proteasome (Oryctolagus cuniculus, UniProt G1SWK8); assay: In vitro purified rabbit muscle 20S proteasome assay, trypsin-like (T-L) activity, Boc-LRR-AMC substrate; format: biochemical
T2 construct: In Vitro Purified Rabbit Muscle 20S Proteasome Activity Assays; from tissue; host or cells: rabbit muscle
T2 sequence (G1SWK8 1-271): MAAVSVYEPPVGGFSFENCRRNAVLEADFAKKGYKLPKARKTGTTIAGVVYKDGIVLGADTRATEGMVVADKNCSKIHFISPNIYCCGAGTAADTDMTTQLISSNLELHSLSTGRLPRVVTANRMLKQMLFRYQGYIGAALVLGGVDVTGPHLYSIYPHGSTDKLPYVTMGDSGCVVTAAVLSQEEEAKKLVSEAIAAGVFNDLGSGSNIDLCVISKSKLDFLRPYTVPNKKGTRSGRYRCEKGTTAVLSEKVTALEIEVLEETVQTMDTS
Description: as §1

[3] = target: T3, caspase-like activity of the 20S proteasome (Oryctolagus cuniculus, UniProt A0A5F9DQW2); assay: In vitro purified rabbit muscle 20S proteasome assay, caspase-like (C-L) activity, Z-LLEAMC substrate; format: biochemical
T3 construct: In Vitro Purified Rabbit Muscle 20S Proteasome Activity Assays; from tissue; host or cells: rabbit muscle
T3 sequence (A0A5F9DQW2 1-212): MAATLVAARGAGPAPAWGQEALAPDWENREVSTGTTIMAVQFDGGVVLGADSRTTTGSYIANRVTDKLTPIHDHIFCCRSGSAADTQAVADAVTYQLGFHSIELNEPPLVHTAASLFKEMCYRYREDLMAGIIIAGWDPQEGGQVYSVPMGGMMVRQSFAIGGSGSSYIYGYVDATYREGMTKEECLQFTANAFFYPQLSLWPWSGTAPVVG
Description: as §1

RPMI 8226 = assay: Cytotoxicity in RPMI 8226; settings: Homo sapiens, RPMI-8226, read-out: Cytotoxicity in RPMI 8226 Average IC50 ± SD (nM)
Description: B16-F10 (ATCC; CRL-6475), DU 145 (ATCC; HTB-81), HEK293 (ATCC; CRL-1573), HT-29 (ATCC; HTB-38), LoVo (ATCC; CCL-229), MDA-MB-231 (ATCC; HTB-26), MIA PaCa-2 (ATCC; CRL-1420), NCI-H292 (ATCC; CRL-1848), OVCAR-3 (ATCC, HTB-161), PANC-1 (ATCC; CRL-1469), PC-3 (ATCC; CRL-1435), RPMI 8226 (ATCC; CCL-155) and U266 (ATCC; TIB-196) are maintained in appropriate culture media. The cells are cultured in an incubator at 37° C. in 5% CO2 and 95% humidified air.
20 mM stock solutions of the test compound are prepared in 100% DMSO, aliquoted and stored at −80° C. […] The plates are returned to the incubator for 48 hours. The final concentration of DMSO is 0.25% in all samples.
Following 48 hours of drug exposure, 10 μl of 0.2 mg/ml resazurin (obtained from Sigma-Aldrich Chemical Co.) in Mg^2+, Ca^2+ free phosphate buffered saline are added to each well and the plates are returned to the incubator for 3-6 hours. Since living cells metabolize Resazurin, the fluorescence of the reduction product of Resazurin is measured using a Fusion microplate fluorometer (Packard Bioscience) with λex=535 nm and λem=590 nm filters. Resazurin dye in medium without cells is used to determine the background, which was subtracted from the data for all experimental wells.

[4] = rabbit 20S proteasome, mean ± SD of 3 or more experiments, read-out: CT-L IC50
[5] = rabbit 20S proteasome, mean ± SD of 3 or more experiments, read-out: T-L IC50
[6] = rabbit 20S proteasome, mean ± SD of 3 or more experiments, read-out: C-L IC50

SMILES	IC50 [1]	IC50 [2]	IC50 [3]	IC50 (RPMI 8226)	IC50 [1, 4]	IC50 [2, 5]	IC50 [3, 6]
CC(C)(C)c1ccc(S(=O)(=O)OCC[C@H]2C(=O)N[C@@]3([C@@H](O)[C@@H]4C=CCCC4)C(=O)O[C@@]23C)cc1	3.2 ± 0.4 nM	31 ± 1 nM	180 ± 4 nM	94 ± 18 nM			
C[C@@]12OC(=O)[C@]1([C@@H](O)[C@@H]1C=CCCC1)NC(=O)[C@@H]2CCOS(=O)(=O)c1ccc(-c2ccccc2)cc1	3.8 ± 0.1 nM	15 ± 1 nM	101 ± 11 nM	43 ± 12 nM			
C[C@@]12OC(=O)[C@]1([C@@H](O)[C@@H]1C=CCCC1)NC(=O)[C@@H]2CCOS(=O)(=O)c1ccc(Oc2ccccc2)cc1	3.2 ± 0.2 nM	14 ± 1 nM	85 ± 9 nM	78 ± 25 nM			
C[C@@]12OC(=O)[C@]1([C@@H](O)[C@@H]1C=CCCC1)NC(=O)[C@@H]2CCOC(=O)c1ccc(-c2ccccc2)cc1	9 ± 2 nM	52 ± 5 nM	160 ± 9 nM	290 ± 108 nM			
C[C@@]12OC(=O)[C@]1([C@@H](O)[C@@H]1C=CCCC1)NC(=O)[C@@H]2CCBr [CH2CH2Br]				7.8 ± 1.4 nM	2.6 ± 0.4 nM	14 ± 2 nM	290 ± 60 nM
CCC[C@H]1C(=O)N[C@@]2([C@@H](O)[C@@H]3C=CCCC3)C(=O)O[C@@]12C [CH2CH2CH3]				6300 nM	24 ± 5 nM	1100 ± 200 nM	1200 ± 200 nM
C[C@@]12OC(=O)[C@]1([C@@H](O)[C@@H]1C=CCCC1)NC(=O)[C@@H]2CCCl [CH2CH2Cl, Salinosporamide A, reference compound]				9.8 ± 3 nM			
C[C@@]12OC(=O)[C@]1([C@@H](O)[C@@H]1C=CCCC1)NC(=O)[C@@H]2CCF [CH2CH2F]				875 ± 430 nM	10 ± 0.7 nM	525 ± 15 nM	781 ± 47 nM
C[C@@]12OC(=O)[C@]1([C@@H](O)[C@@H]1C=CCCC1)NC(=O)[C@@H]2CCI [CH2CH2I]				6.9 ± 0.9 nM	2.8 ± 0.5 nM	13 ± 3 nM	410 ± 230 nM
CC(=O)OCC[C@H]1C(=O)N[C@@]2([C@@H](O)[C@@H]3C=CCCC3)C(=O)O[C@@]12C [CH2CH2OC(O)CH3]	9.1 ± 0.3 nM	745 ± 40 nM	971 ± 56 nM	20000 nM			
CN(C)c1cccc2c(S(=O)(=O)OCC[C@H]3C(=O)N[C@@]4([C@@H](O)[C@@H]5C=CCCC5)C(=O)O[C@@]34C)cccc12 [CH2CH2ODs]	3 ± 0.5 nM	12 ± 2.3 nM	90 ± 11 nM	30 ± 6 nM			
C[C@@]12OC(=O)[C@]1([C@@H](O)[C@@H]1C=CCCC1)NC(=O)[C@@H]2CCO [CH2CH2OH]				38000 nM	14 ± 1.5 nM	1200 ± 150 nM	1200 ± 57 nM
C[C@@]12OC(=O)[C@]1([C@@H](O)[C@@H]1C=CCCC1)NC(=O)[C@@H]2CCOS(C)(=O)=O [CH2CH2OMs]	4.3 ± 0.8 nM	65 ± 8 nM	873 ± 32 nM	144 ± 46 nM			
Cc1ccc(S(=O)(=O)OCC[C@H]2C(=O)N[C@@]3([C@@H](O)[C@@H]4C=CCCC4)C(=O)O[C@@]23C)cc1 [CH2CH2OTs]	2.5 ± 0.4 nM	9.9 ± 0.2 nM	127 ± 5 nM	27 ± 8.5 nM			
CC[C@H]1C(=O)N[C@@]2([C@@H](O)[C@@H]3C=CCCC3)C(=O)O[C@@]12C [CH2CH3]				6300 nM		610 ± 35 nM	
C[C@H]1C(=O)N[C@@]2([C@@H](O)[C@@H]3C=CCCC3)C(=O)O[C@@]12C [CH3]				6300 nM	7.5 ± 0.6 nM	370 ± 44 nM	460 ± 49 nM
